From patent US20230150924A1, “NOVEL COMPOUND HAVING CANCER METASTASIS INHIBITORY ACTIVITY, PREPARATION METHOD THEREFOR, AND PHARMACEUTICAL COMPOSITION FOR INHIBITING CANCER METASTASIS AND INVASION OR TREATING COLORECTAL CANCER, COMPRISING COMPOUND” (CELLGENTEK CO., LTD., priority 2019, published 2023)

Key:
KAI1 promoter = KAI1 promoter luciferase reporter assay in transfected Caco2 cells; format: cell-based, human; conditions: Homo sapiens, Caco-2, 16 h, 1 μM compound, 16 hours, transfected Caco2 cells, luciferase activity relative to DMSO control (=1); read-out: Relative KAI promoter activity
[1] = system: invasion of colorectal cancer cells; test: In vivo relative invation (invasion; EV and KITENIN controls, no method described); conditions: relative to EV (=1); KIT = KITENIN

Row | Structure (SMILES) | fold induction at 1 µM (KAI1 promoter) | In vivo relative invation [1]
1 | O=C(CNC(=O)c1ccc(OC(F)(F)F)cc1)c1ccccc1 [Example 38, N-(2-oxo-2-phenylethyl)-4-(trifluoromethoxy)benzamide] | 1.57 | 1.119
2 | Cc1ccc(S(=O)(=O)NCC(=O)c2ccc(Cl)cc2)cc1 [Example 68, N-(2-(4-chlorophenyl)-2-oxoethyl)-4-methylbenzenesulfonamide] | 0.88 | 1.125
3 | CC(Oc1ccccc1)C(=O)NCC(=O)c1ccc(N(C)C)cc1 (centres unmarked) [Example 89, N-(2-(4-(dimethylamino)phenyl)-2-oxoethyl)-2-phenoxypropanamide] | 1.27 | 1.074
4 | CCCCC(=O)NCC(=O)c1ccccc1 [Example 20, N-(2-oxo-2-phenylethyl)pentanamide] | 0.99 | 1.217
5 | C=CCN(CC=C)Cc1cccc(C(=O)NCC(=O)c2cccc(OC)c2)c1 [Example 285, 3-((diallylamino)methyl)-N-(2-(3-methoxyphenyl)-2-oxoethyl)benzamide] | 1.47 | 1.247
6 | COc1cccc(C(=O)CNC(=O)c2cccc(CN(C)Cc3ccccc3)c2)c1 [Example 286, 3-((benzyl (methyl)amino)methyl)-N-(2-(3-methoxyphenyl)-2-oxoethyl)benzamide] | 1.43 | 1.233
7 | CCC(=O)NCC(=O)c1ccc(Cl)cc1 [Example 54, N-(2-(4-chlorophenyl)-2-oxoethyl) propionamide] | 0.7 | 1.083
8 | C=CCN(CC=C)Cc1ccc(C(=O)NCC(=O)c2ccccc2)cc1 [Example 265, 4-((diallylamino)methyl)-N-(2-oxo-2-phenylethyl)benzamide] | 1.91 | 1.343
9 | O=C(CNC(=O)c1ccccc1C(F)(F)F)c1ccccc1 [Example 30, N-(2-oxo-2-phenylethyl)-2-(trifluoromethyl)benzamide] | 1.41 | 0.7631
10 | O=C(CNS(=O)(=O)c1ccc(Cl)cc1)c1ccc(N2CCOCC2)cc1 [Example 147, 4-chloro-N-(2-(4-morpholinophenyl)-2-oxoethyl)benzenesulfonamide] | 1.1 | 0.9524
